# Test results reported in ChEMBL document CHEMBL5724581, “Toxicity screen in purified B cell assay results for EUbOPEN Chemogenomics Library” (2024).
# Several values for one entry are separate records, joined by “and”; a condition that tells them apart may be missing. Equal values may be shown once. Bridge positions count the residues as written; N and C are the ends. Square brackets hold non-standard residues; d marks the D form. Peptide text beside a SMILES is read from it. * marks the point of attachment. dPhe(4-NHCONH2) = NC(=O)Nc1ccc(C[C@@H](N)C(=O)O)cc1; Dihydroorotyl(S) = O=C1C[C@@H](C(=O)*)NC(=O)N1; dPhe(4-Cl) = N[C@H](Cc1ccc(Cl)cc1)C(=O)O; Phe(4-NH2) = Nc1ccc(C[C@H](N)C(=O)O)cc1; d2Nal = N[C@H](Cc1ccc2ccccc2c1)C(=O)O; Lys(iPr) = CC(C)NCCCC[C@H](N)C(=O)O; d3Pal = N[C@H](Cc1cccnc1)C(=O)O; Orn = NCCC[C@H](N)C(=O)O; Mpa = O=C(O)CCS
# System: B cell
# Assay: Cytotoxicity screening of chemical probes in isolated B cell assay. Data is normalized to DMSO control, the cell viability average of replicates are reported. Reduction of ATP level more than 20% indicate compromised cell health status.
# Settings: human, 1 µM
row,SMILES,Cell Viability
1,CCOc1nc2cccc(C(=O)O)c2n1Cc1ccc(-c2ccccc2-c2nnn[nH]2)cc1,98.0011%
2,CCCCC(=O)N(Cc1ccc(-c2ccccc2-c2nnn[nH]2)cc1)[C@H](C(=O)O)C(C)C,98.0011%
3,CC1(C)[C@H]2C[C@H](C/C=C\CCCC(=O)O)[C@@H](NC(=O)c3csc4ccc(O)cc34)[C@@H]1C2,98.0011%
4,COCCn1c(C)c(C)s/c1=N\C(=O)C1C(C)(C)C1(C)C,98.0011%
5,CC#C[C@@H](CC(=O)O)c1ccc(OCc2cccc(-c3ccc(C(F)(F)F)cc3)c2)cc1,98.0011%
6,Cc1cc(OCCCS(C)(=O)=O)cc(C)c1-c1cccc(COc2ccc3c(c2)OC[C@H]3CC(=O)O)c1,98.0011%
7,COc1ccncc1C(=O)NC(=O)Nc1ccc(-c2ccccc2)c(C(F)(F)F)c1,98.0011%
8,COc1cccc2c1c(NS(=O)(=O)c1ccc(Cl)s1)nn2Cc1cccc(CNC(=O)C(C)(C)O)c1,103.681%
9,O=C(O)c1n[nH]c2c1C[C@H]1C[C@@H]21,98.0011%
10,CCc1nc2c(C)cc(C)nc2[nH]1,98.0011%
11,c1ccc(NCc2ccc(CNc3ccccn3)cc2)nc1,99.8082%
12,Cc1nnc(C(=O)NC(C)(C)c2nc(C(=O)NCc3ccc(F)cc3)c(O)c(=O)n2C)o1,103.493%
13,CSc1ccc(C(=O)N[C@@H]2CCCC[C@@H]2NC(=O)CNC(=O)c2cc(C(F)(F)F)ccc2NC(=O)NC(C)C)cc1,102.032%
14,CSc1cc2c(cc1C(F)(F)F)N(C(=O)Nc1cccnc1)CC2,98.0011%
15,CC[C@H]1OC(=O)[C@H](C)[C@@H](O[C@H]2C[C@@](C)(OC)[C@@H](O)[C@H](C)O2)[C@H](C)[C@@H](O[C@@H]2O[C@H](C)C[C@H](N(C)C)[C@H]2O)[C@@]2(C)CC(C)=C(O2)[C@H](C)[C@@H](O)[C@]1(C)O,98.0011%
16,Cc1cc(Cn2cnc3c2C[C@@H](C(=O)O)N(C(=O)C(c2ccccc2)c2ccccc2)C3)ccc1N(C)C,98.0011%
17,COc1ccc(C(=O)N2CCN(C(=O)/C=C/c3ccc(Br)cc3)CC2)cc1,98.0011%
18,Cc1nc[nH]c1CCN.Cl,98.0011%
19,N#Cc1c(O)nc(SCc2cccc(F)c2F)nc1C1CC1,104.007%
20,Cc1ccc(Cn2nc(C(=O)N[C@@H]3C(C)(C)[C@@H]4CC[C@@]3(C)C4)cc2-c2ccc(Cl)c(C)c2)cc1,98.0011%
21,N#Cc1ccc(NC(=O)Nc2ccccc2Br)c2nn[nH]c12,104.304%
22,NS(=O)(=O)c1c(Cl)ccc(NC(=O)Nc2cccc(Cl)c2Cl)c1O,102.927%
23,COc1cc(C(=O)N(CCCc2ccccc2)Cc2ccc(CC(=O)O)cc2)cc(OC)c1C,98.0011%
24,C[C@H](CO)Nc1nc(SCc2cccc(Cl)c2F)nc2[nH]c(=O)sc12,95.8941%
25,O=C(NCc1ccc(F)cc1)N1CCN2C(=O)OC(c3ccccc3)(c3ccccc3)C2C1 (stereo not drawn),98.0011%
26,Cl.O=c1c2cccn2c2ccccc2n1CCCN1CCC(c2ccc(Cl)cc2)CC1,98.0011% and 103.839%
27,NC(=O)c1ccc(CNC(=O)NC[C@H]2CN(Cc3ccc(Cl)c(Cl)c3)CCO2)cc1,98.0011%

row,SMILES,Cell Viability
1,Nc1nc2c(c(N3CCNCC3)n1)CCC1=C2[C@@H]2CCCC[C@@H]2O1,100.079%
2,"CCCn1c(=O)c2[nH]c(C3CCCC3)nc2n(CCC)c1=O [1,3-DIPROPYL-8-CYCLOPENTYLXANTHINE [DPCPX]]",98.0011%
3,Cc1[nH]cnc1CN1CCc2c(c3ccccc3n2C)C1=O [ALOSETRON],98.0011%
4,COC(c1ccccc1)(c1ccccc1)[C@H](Oc1nc(C)cc(C)n1)C(=O)O [AMBRISENTAN],98.0011%
5,C[C@@H](O[C@H]1OCCN(Cc2n[nH]c(=O)[nH]2)[C@H]1c1ccc(F)cc1)c1cc(C(F)(F)F)cc(C(F)(F)F)c1 [APREPITANT],98.0011%
6,CCOc1ccc(C[C@H]2NC(=O)CCSSC[C@@H](C(=O)N3CCC[C@H]3C(=O)N[C@@H](CCCN)C(=O)NCC(N)=O)NC(=O)[C@H](CC(N)=O)NC(=O)[C@H]([C@@H](C)O)NC(=O)[C@H]([C@@H](C)CC)NC2=O)cc1 [ATOSIBAN] ([Mpa][dY](Et)ITNCP[Orn]G-NH2; disulfide 1-6),98.0011%
7,CC(C)C[C@H](CO)Nc1nc(S[C@@H](C)c2ccccc2)nc2nc(N)sc12 [AZD-8797],97.9584%
8,CC(C)C[C@@H]1NC(=O)[C@@H](C(C)C)NC(=O)[C@@H]2CCCN2C(=O)[C@@H](CC(=O)O)NC(=O)[C@@H](Cc2c[nH]c3ccccc23)NC1=O [BQ-123] (cyclo(L[dW][dD]P[dV])),98.0011%
9,C[C@@H]1CN(Cc2ccc(F)cc2)CCN1C(=O)COc1ccc(Cl)cc1NC(N)=O [BX 471 FREE BASE],98.0011% and 103.598%
10,Cc1c(F)cccc1NC(=O)Nc1ccc(Cl)c(S(=O)(=O)[C@H]2CCCNC2)c1O [DANIRIXIN],101.889%
11,CC(=O)N[C@H](Cc1ccc2ccccc2c1)C(=O)N[C@H](Cc1ccc(Cl)cc1)C(=O)N[C@H](Cc1cccnc1)C(=O)N[C@@H](CO)C(=O)N[C@@H](Cc1ccc(NC(=O)[C@@H]2CC(=O)NC(=O)N2)cc1)C(=O)N[C@H](Cc1ccc(NC(N)=O)cc1)C(=O)N[C@@H](CC(C)C)C(=O)N[C@@H](CCCCNC(C)C)C(=O)N1CCC[C@H]1C(=O)N[C@H](C)C(N)=O [DEGARELIX] (Ac-[d2Nal][dPhe(4-Cl)][d3Pal]S[Phe(4-NH2)](Dihydroorotyl(S))[dPhe(4-NHCONH2)]L[Lys(iPr)]P[dA]-NH2),98.0011%
12,O=C(O)Cc1ccccc1Nc1c(Cl)cccc1Cl [DICLOFENAC],98.0011% and 91.1433%
13,C[C@]12N[C@H](Cc3ccccc31)c1ccccc12 [DIZOCILPINE],98.0011%
14,O=S(=O)(c1ccccc1)c1cnc2c(N3CCNCC3)cccc2c1 [INTEPIRDINE],98.0011%
15,c1cc(OCCCN2CCCCC2)ccc1CN1CCCCC1 [JNJ-5207852],98.0011%
16,CCNC1(C(N)=O)CCN(c2ncnc3c2nc(-c2ccccc2Cl)n3-c2ccc(Cl)cc2)CC1 [OTENABANT],98.0011%
17,O=C(NCC(=O)N1CC[C@H](N[C@H]2CC[C@@](O)(c3ccc(-c4ncccn4)cn3)CC2)C1)c1cccc(C(F)(F)F)c1 [PF-4136309],99.5458%
18,c1cc(CN2CCCNCCNCCCNCC2)ccc1CN1CCCNCCNCCCNCC1 [PLERIXAFOR],104.498%
19,CC(C)Cc1ccc([C@@H](C)C(=O)NS(C)(=O)=O)cc1 [REPARIXIN],98.0011% and 100.432%
20,Cc1c(C(=O)NN2CCCCC2)nn(-c2ccc(Cl)cc2Cl)c1-c1ccc(Cl)cc1 [RIMONABANT],98.0011%
21,C[C@@H](OC[C@@]1(c2ccccc2)CC[C@]2(CCC(=O)N2)CN1)c1cc(C(F)(F)F)cc(C(F)(F)F)c1 [ROLAPITANT],98.0011%
22,CC(C)N(CCCCOCC(=O)NS(C)(=O)=O)c1cnc(-c2ccccc2)c(-c2ccccc2)n1 [SELEXIPAG],98.0011%
23,Cc1ccc2c(c1CCC(=O)O)CC[C@@H](NS(=O)(=O)c1ccc(Cl)cc1)C2 [TERUTROBAN],98.0011%
24,Cl.Clc1ccc2nsnc2c1NC1=NCCN1 [TIZANIDINE HYDROCHLORIDE],98.0011%
25,Cc1ccc(/C(=C\CN2CCCC2)c2ccccn2)cc1 [TRIPROLIDINE],98.0011%
26,COC[C@@H](c1ccc(C(F)(F)F)cc1)N1CCN(C2(C)CCN(C(=O)c3c(C)ncnc3C)CC2)C[C@@H]1C.O=C(O)/C=C\C(=O)O [VICRIVIROC MALEATE],101.876%
